Assay results taken from the supplement of paper PMC10307832.

Key:
Assay in all cases: relative viability (nuclei count vs DMSO), 5 days (fraction); higher = more cells survive
Vemurafenib + Trametinib = compound: CCCS(=O)(=O)Nc1ccc(F)c(C(=O)c2c[nH]c3ncc(-c4ccc(Cl)cc4)cc23)c1F [Vemurafenib] + CC(=O)Nc1cccc(-n2c(=O)n(C3CC3)c(=O)c3c(Nc4ccc(I)cc4F)n(C)c(=O)c(C)c32)c1 [Trametinib] (partner 0.02 µM)
How it was run: (§1)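 The day after seeding in 1536-well plates, lung cancer cell lines were treated by pin tool with a single drug, or with a fixed anchor-drug dose together with five library-drug doses (not always all listed) in √10 steps. After 5 days, a combined fix-and-stain solution (final 0.05% Triton X-100, 1% formaldehyde, 1 ug/ml Hoechst) was added. Nuclei counted on 4× images gave relative viability as treated counts over vehicle counts, reported as the median of duplicate plates.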

Vemurafenib + Crizotinib = compound: CCCS(=O)(=O)Nc1ccc(F)c(C(=O)c2c[nH]c3ncc(-c4ccc(Cl)cc4)cc23)c1F [Vemurafenib] + C[C@@H](Oc1cc(-c2cnn(C3CCNCC3)c2)cnc1N)c1c(Cl)ccc(F)c1Cl [Crizotinib] (partner 1 µM)
How it was run: as §1

OSI-027 + Phenformin = compound: COc1cccc2cc(-c3nc([C@H]4CC[C@H](C(=O)O)CC4)n4ncnc(N)c34)[nH]c12 [OSI-027] + N=C(N)NC(=N)NCCc1ccccc1 [Phenformin] (partner 250 µM)
How it was run: as §1

Alpelisib + Trametinib = compound: Cc1nc(NC(=O)N2CCC[C@H]2C(N)=O)sc1-c1ccnc(C(C)(C)C(F)(F)F)c1 [Alpelisib] + CC(=O)Nc1cccc(-n2c(=O)n(C3CC3)c(=O)c3c(Nc4ccc(I)cc4F)n(C)c(=O)c(C)c32)c1 [Trametinib] (partner 0.02 µM)
How it was run: as §1

Cell Line	relative viability (Vemurafenib + Trametinib; first compound 0.03162 µM)	relative viability (Vemurafenib + Trametinib; first compound 0.1 µM)	relative viability (Vemurafenib + Trametinib; first compound 1 µM)	relative viability (Vemurafenib + Crizotinib; first compound 0.03162 µM)	relative viability (Vemurafenib + Crizotinib; first compound 0.1 µM)	relative viability (Vemurafenib + Crizotinib; first compound 0.3162 µM)	relative viability (Vemurafenib + Crizotinib; first compound 1 µM)	relative viability (OSI-027 + Phenformin; first compound 0.01 µM)	relative viability (OSI-027 + Phenformin; first compound 0.03162 µM)	relative viability (OSI-027 + Phenformin; first compound 0.1 µM)	relative viability (OSI-027 + Phenformin; first compound 0.3162 µM)	relative viability (OSI-027 + Phenformin; first compound 1 µM)	relative viability (Alpelisib + Trametinib; first compound 0.04 µM)	relative viability (Alpelisib + Trametinib; first compound 0.1265 µM)	relative viability (Alpelisib + Trametinib; first compound 0.4 µM)	relative viability (Alpelisib + Trametinib; first compound 1.265 µM)	relative viability (Alpelisib + Trametinib; first compound 4 µM)	relative viability (Vemurafenib + Trametinib; first compound 0.3162 µM)
A-427	0.711	0.702	0.763	0.819	0.983	0.919	0.815	0.296	0.332	0.289	0.269	0.297	0.717	0.624	0.681	0.484	0.501	–
SK-LU-1	0.468	0.515	0.432	0.855	0.905	0.664	0.72	0.515	0.467	0.447	0.318	0.219	0.474	0.566	0.53	0.392	0.345	0.459
PC-3 [JPC-3]	–	–	0.802	0.91	–	1.01	1.01	0.482	0.465	0.49	0.449	0.433	0.704	0.602	0.685	0.655	0.578	0.649
ChaGo-K-1	0.834	0.875	0.898	1.07	1.14	–	1.13	0.43	0.499	0.436	0.409	0.323	0.725	0.963	0.856	0.756	0.586	0.868
NCI-H2023	0.592	0.489	0.699	0.534	0.452	0.704	0.675	0.452	0.367	0.397	0.301	0.213	0.532	0.452	0.538	0.287	0.208	0.597
LXF-289	0.656	0.599	0.733	0.783	0.796	0.838	0.87	0.525	0.518	0.543	0.484	0.398	0.632	0.632	0.71	0.609	0.694	0.697
EBC-1	–	–	–	0.188	0.19	0.197	0.182	–	–	–	–	–	–	–	–	–	–	–
LOU-NH91	0.743	0.656	0.861	0.691	0.515	–	0.752	0.699	0.679	0.504	0.548	0.411	0.773	0.686	0.696	0.649	0.591	0.642
PC-14	0.735	–	0.803	0.749	–	0.849	0.852	0.582	0.466	0.488	0.392	0.276	0.735	0.686	0.62	0.292	0.709	0.862
Calu-6	–	–	–	0.595	0.808	0.783	0.668	–	–	–	–	–	–	–	–	–	–	–
H3255	0.589	–	0.645	0.883	–	0.865	0.808	0.308	0.359	0.31	0.349	0.407	0.649	0.541	0.642	0.422	0.391	0.652
SW 900	0.939	0.593	0.868	–	–	–	–	–	0.45	0.633	0.474	0.347	0.733	–	1.11	0.761	0.745	0.778
NCI-H650	1.05	0.944	1.09	0.705	0.72	0.418	0.581	0.424	0.487	0.394	0.417	0.285	0.996	0.921	0.962	0.749	0.774	0.808
NCI-H1563	–	–	–	0.825	0.744	0.823	0.852	0.674	0.647	0.618	0.681	0.589	–	–	–	–	–	–
NCI-H2170	0.888	–	0.89	1.09	0.752	1.15	1.14	0.429	0.401	0.431	0.436	0.275	0.91	0.857	0.921	0.666	0.549	0.846
HCC-366	0.346	0.193	0.376	0.465	0.468	–	0.412	0.598	0.649	0.637	0.659	0.498	0.337	0.289	0.233	0.138	0.13	–
EKVX	0.316	–	0.476	0.842	–	1	0.968	0.238	0.205	0.245	0.222	0.195	0.306	0.334	0.27	0.341	0.249	0.406
NCI-H522	0.695	0.63	0.783	–	–	–	–	0.72	0.57	0.583	0.506	0.508	0.673	0.756	0.683	0.681	0.542	0.786
NCI-H1623	–	–	–	–	–	–	–	0.583	0.603	0.485	0.424	0.32	–	–	–	–	–	–
ABC-1	–	–	–	1.01	1.21	1.2	0.997	0.237	0.244	0.236	0.2	0.197	–	–	–	–	–	–
NCI-H1648	–	0.326	0.58	–	–	–	–	–	–	–	–	–	0.489	0.496	0.472	0.296	0.245	0.569
NCI-H1299	–	–	–	0.951	0.929	0.9	0.94	–	–	–	–	–	–	–	–	–	–	–
NCI-H1703	–	–	–	0.605	0.449	0.453	0.593	–	–	–	–	–	–	–	–	–	–	–
NCI-H1395	1.04	1.03	0.971	–	–	–	–	0.446	0.431	0.396	0.401	0.369	1.07	1	1.13	0.817	0.878	0.89
A549	–	–	–	0.704	0.717	0.743	0.717	0.176	0.154	0.122	0.171	0.0806	–	–	–	–	–	–
